Earlier results as cited in patent US20060110374A1, “Method to accelerate stem cell recruitment and homing” (priority 2004, published 2006).

Experiments:
EPCs [1] = tested on: EPCs
[2] = patients, intra-coronary injection followed by 2 weeks of subcutaneous administration
EPCs [3] = tested on: EPCs; remark: listed apart in the source

| Substance | numbers of EPCs (EPCs [1]; mice and rabbits) | neovascularization with bone marrow-derived cells (EPCs [1]; mice, corneal neovascularization model) | coronary collateral flow [2] | time to rise of EPC levels in the bloodstream (EPCs [3]; after administration) [h] | mobilization of EPCs into the peripheral circulation (EPCs [3]; animal models, exogenous administration) |
| --- | --- | --- | --- | --- | --- |
| GM-CSF: granulocyte macrophage colony stimulating factor | Increased numbers | enhanced neovascularization | significant increase | – | – |
| VEGF | – | – | – | ≤ 24 | promotes rapid mobilization |
